The target of assay [1] is T1, PTPN2 (Homo sapiens, UniProt P17706).
T1 construct: expressed in transfected cells; host or cells: 293T (293T.109 HiBiT-PTPN2 line; parental 293T WT from ATCC)
T1 sequence (P17706 1-415): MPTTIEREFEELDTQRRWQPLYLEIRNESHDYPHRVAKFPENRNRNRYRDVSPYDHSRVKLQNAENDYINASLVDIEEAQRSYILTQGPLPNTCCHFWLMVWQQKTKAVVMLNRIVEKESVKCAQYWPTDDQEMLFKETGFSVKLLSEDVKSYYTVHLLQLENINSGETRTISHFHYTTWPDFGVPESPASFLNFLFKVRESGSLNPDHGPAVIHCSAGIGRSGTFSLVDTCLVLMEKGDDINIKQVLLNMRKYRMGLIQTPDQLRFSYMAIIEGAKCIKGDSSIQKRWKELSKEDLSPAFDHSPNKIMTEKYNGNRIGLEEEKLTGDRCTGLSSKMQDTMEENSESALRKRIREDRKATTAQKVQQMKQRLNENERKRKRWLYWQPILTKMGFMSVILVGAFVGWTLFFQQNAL
Briefly: HiBiT-Degradation 293T.109 PTPN2 (Nano-Glo HiBiT Lytic Assay). The class given is cell-based. The settings on record: 293T.109 (HiBiT-PTPN2) cells, 24.0 hours. Summed up: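 293T cells ectopically expressing N-terminally HiBiT-tagged PTPN2 were seeded at 5000 cells/well. They were treated with an 11-point half-log titration from 10 μM, in duplicate, for 24 hours at 37° C., 5% CO2. Remaining tagged PTPN2 was quantified by lytic HiBiT luminescence against untreated and no-reagent controls.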

The subject of assay [2] is PTPN2. Briefly: HiBiT-Degradation B16F10.4 PTPN2. The class given is cell-based. The settings on record: B16F10.4 cells, 24.0 hours.

SMILES strings stand for the structures.

This is an account of results in patent publication US20240383886A1, “Protein Tyrosine Phosphatase Degraders and Methods of Use Thereof” (CALICO LIFE SCIENCES LLC, priority 2019, published 2024).

As to `Cn1c(=O)n(C2CCC(=O)NC2=O)c2ccc(C3CCN(CC(=O)N4CC=C(c5ccc6cc(O)c(N7CC(=O)NS7(=O)=O)c(F)c6c5)CC4)CC3)cc21` (stereo not drawn) [Example 119, 3-[5-[1-[2-[4-[8-fluoro-6-hydroxy-7-(1,1,4-trioxo-1,2,5-thiadiazolidin-2-yl)-2-naphthyl]-3,6-dihydro-2H-pyridin-1-yl]-2-oxo-ethyl]-4-piperidyl]-3-methyl-2-oxo-benzimidazol-1-yl]piperidine-2,6-dione], the results for the DC50 at PTPN2 [1] and with PTPN2 [2] were 10 to 50 nM and 50 to 200 nM, respectively.
Consider `Cn1c(=O)n(C2CCC(=O)NC2=O)c2ccc(C3CCN(CC(=O)N4CCC(c5ccc6cc(O)c(N7CC(=O)NS7(=O)=O)c(F)c6c5)CC4)CC3)cc21` (stereo not drawn) [Example 120, 3-[5-[1-[2-[4-[8-fluoro-6-hydroxy-7-(1,1,4-trioxo-1,2,5-thiadiazolidin-2-yl)-2-naphthyl]-1-piperidyl]-2-oxo-ethyl]-4-piperidyl]-3-methyl-2-oxo-benzimidazol-1-yl]piperidine-2,6-dione], for which the DC50 at PTPN2 [1] was in the range of 10 to 50 nM; in the assay with PTPN2 [2], 50 to 200 nM.
The matching figures for `Cn1c(=O)n(C2CCC(=O)NC2=O)c2ccc(C3CCN(CCN4CC=C(c5ccc6cc(O)c(N7CC(=O)NS7(=O)=O)c(F)c6c5)CC4)CC3)cc21` (stereo not drawn) [Example 121, 3-[5-[1-[2-[4-[8-fluoro-6-hydroxy-7-(1,1,4-trioxo-1,2,5-thiadiazolidin-2-yl)-2-naphthyl]-3,6-dihydro-2H-pyridin-1-yl]ethyl]-4-piperidyl]-3-methyl-2-oxo-benzimidazol-1-yl]piperidine-2,6-dione]: 10 to 50 nM and 50 to 200 nM.
The matching figures for `Cn1c(=O)n(C2CCC(=O)NC2=O)c2ccc(C3CCN(CCn4cc(-c5ccc6c(F)c(N7CC(=O)NS7(=O)=O)c(O)cc6c5)cn4)CC3)cc21` (stereo not drawn) [Example 122, 3-[5-[1-[2-[4-[5-fluoro-7-hydroxy-6-(1,1,4-trioxo-1,2,5-thiadiazolidin-2-yl)-2-naphthyl]pyrazol-1-yl]ethyl]-4-piperidyl]-3-methyl-2-oxo-benzimidazol-1-yl]piperidine-2,6-dione]: 10 to 50 nM and 200 to 1000 nM.
The matching figures for `Cn1c(=O)n(C2CCC(=O)NC2=O)c2ccc(C3CCN(CCN4CCC(c5ccc6cc(O)c(N7CC(=O)NS7(=O)=O)c(F)c6c5)CC4)CC3)cc21` (stereo not drawn) [Example 123, 3-[5-[1-[2-[4-[8-fluoro-6-hydroxy-7-(1,1,4-trioxo-1,2,5-thiadiazolidin-2-yl)-2-naphthyl]-1-piperidyl]ethyl]-4-piperidyl]-3-methyl-2-oxo-benzimidazol-1-yl]piperidine-2,6-dione]: 10 to 50 nM and 50 to 200 nM.
`Cn1c(=O)n(C2CCC(=O)NC2=O)c2ccc(N3CCC(CC(=O)N4CCC(c5ccc6cc(O)c(N7CC(=O)NS7(=O)=O)c(F)c6c5)CC4)CC3)cc21` (stereo not drawn) [Example 124, 3-[5-[4-[2-[4-[8-fluoro-6-hydroxy-7-(1,1,4-trioxo-1,2,5-thiadiazolidin-2-yl)-2-naphthyl]-1-piperidyl]-2-oxo-ethyl]-1-piperidyl]-3-methyl-2-oxo-benzimidazol-1-yl]piperidine-2,6-dione]: the DC50 on PTPN2 [1] and in the assay on PTPN2 [2] was 200 to 1000 nM throughout.
With `Cn1c(=O)n(C2CCC(=O)NC2=O)c2ccc(C3CCN(Cc4cnn(-c5ccc6cc(O)c(N7CC(=O)NS7(=O)=O)c(F)c6c5)c4)CC3)cc21` (stereo not drawn) [Example 125, 3-[5-[1-[[1-[8-fluoro-6-hydroxy-7-(1,1,4-trioxo-1,2,5-thiadiazolidin-2-yl)-2-naphthyl]pyrazol-4-yl]methyl]-4-piperidyl]-3-methyl-2-oxo-benzimidazol-1-yl]piperidine-2,6-dione], the DC50 fell in the range of 50 to 200 nM on PTPN2 [1] and 200 to 1000 nM in the assay on PTPN2 [2].
Taken in the same sequence, the figures for `Cn1c(=O)n(C2CCC(=O)NC2=O)c2ccc(Nc3ccc(C(=O)NCCOc4ccc5cc(O)c(N6CC(=O)NS6(=O)=O)c(F)c5c4)cc3)cc21` (stereo not drawn) [Example 126, 4-[[1-(2,6-dioxo-3-piperidyl)-3-methyl-2-oxo-benzimidazol-5-yl]amino]-N-[2-[[8-fluoro-6-hydroxy-7-(1,1,4-trioxo-1,2,5-thiadiazolidin-2-yl)-2-naphthyl]oxy]ethyl]benzamide] were 200 to 1000 nM and 200 to 1000 nM.
In the case of `Cn1c(=O)n(C2CCC(=O)NC2=O)c2ccc(N3CCC(CC(=O)N4CC=C(c5ccc6cc(O)c(N7CC(=O)NS7(=O)=O)c(F)c6c5)CC4)CC3)cc21` (stereo not drawn) [Example 127, 3-[5-[4-[2-[4-[8-fluoro-6-hydroxy-7-(1,1,4-trioxo-1,2,5-thiadiazolidin-2-yl)-2-naphthyl]-3,6-dihydro-2H-pyridin-1-yl]-2-oxo-ethyl]-1-piperidyl]-3-methyl-2-oxo-benzimidazol-1-yl]piperidine-2,6-dione], the DC50 lay in the range of 50 to 200 nM on PTPN2 [1] and 200 to 1000 nM in the assay on PTPN2 [2].
For `Cn1c(=O)n(C2CCC(=O)NC2=O)c2ccc(C3CCN(CCCCOc4ccc5cc(O)c(N6CC(=O)NS6(=O)=O)c(F)c5c4)CC3)cc21` (stereo not drawn) [Example 128, 3-[5-[1-[4-[[8-fluoro-6-hydroxy-7-(1,1,4-trioxo-1,2,5-thiadiazolidin-2-yl)-2-naphthyl]oxy]butyl]-4-piperidyl]-3-methyl-2-oxo-benzimidazol-1-yl]piperidine-2,6-dione], the results for the DC50 at PTPN2 [1] and in the assay on PTPN2 [2] were 50 to 200 nM and 200 to 1000 nM, respectively.
Taken in the same sequence, the figures for `Cn1c(=O)n(C2CCC(=O)NC2=O)c2ccc(C3CCN(CC(=O)Nc4ccc5c(F)c(N6CC(=O)NS6(=O)=O)c(O)cc5c4)CC3(F)F)cc21` (stereo not drawn) [Example 129, 2-[4-[1-(2,6-dioxo-3-piperidyl)-3-methyl-2-oxo-benzimidazol-5-yl]-3,3-difluoro-1-piperidyl]-N-[5-fluoro-7-hydroxy-6-(1,1,4-trioxo-1,2,5-thiadiazolidin-2-yl)-2-naphthyl]acetamide] were 50 to 200 nM and 50 to 200 nM.
The matching figures for `Cn1c(=O)n(C2CCC(=O)NC2=O)c2ccc(C3CCN(CC(=O)N4CCC[C@@H](COc5ccc6cc(O)c(N7CC(=O)NS7(=O)=O)c(F)c6c5)C4)CC3)cc21` (stereo partly drawn) [Example 130, 3-[5-[1-[2-[(3R)-3-[[8-fluoro-6-hydroxy-7-(1,1,4-trioxo-1,2,5-thiadiazolidin-2-yl)-2-naphthyl]oxymethyl]-1-piperidyl]-2-oxo-ethyl]-4-piperidyl]-3-methyl-2-oxo-benzimidazol-1-yl]piperidine-2,6-dione]: 50 to 200 nM and 50 to 200 nM.
The matching figures for `Cn1c(=O)n(C2CCC(=O)NC2=O)c2ccc(C3CCN(CC(=O)N4CC[C@@H](COc5ccc6cc(O)c(N7CC(=O)NS7(=O)=O)c(F)c6c5)C4)CC3)cc21` (stereo partly drawn) [Example 131, 3-[5-[1-[2-[(3R)-3-[[8-fluoro-6-hydroxy-7-(1,1,4-trioxo-1,2,5-thiadiazolidin-2-yl)-2-naphthyl]oxymethyl]pyrrolidin-1-yl]-2-oxo-ethyl]-4-piperidyl]-3-methyl-2-oxo-benzimidazol-1-yl]piperidine-2,6-dione]: 10 to 50 nM and 50 to 200 nM.
Regarding `Cn1c(=O)n(C2CCC(=O)NC2=O)c2ccc(Nc3ccc(NC(=O)c4ccc5c(F)c(N6CC(=O)NS6(=O)=O)c(O)cc5c4)cc3)cc21` (stereo not drawn) [Example 132], the DC50 at PTPN2 [1] is 50 to 200 nM; in the assay on PTPN2 [2], 200 to 1000 nM.
As to `Cn1c(=O)n(C2CCC(=O)NC2=O)c2ccc(C3CCN(CC(=O)N4CC[C@H](COc5ccc6cc(O)c(N7CC(=O)NS7(=O)=O)c(F)c6c5)C4)CC3)cc21` (stereo partly drawn) [Example 133, 3-[5-[1-[2-[(3S)-3-[[8-fluoro-6-hydroxy-7-(1,1,4-trioxo-1,2,5-thiadiazolidin-2-yl)-2-naphthyl]oxymethyl]pyrrolidin-1-yl]-2-oxo-ethyl]-4-piperidyl]-3-methyl-2-oxo-benzimidazol-1-yl]piperidine-2,6-dione], the DC50 at PTPN2 [1] was 10 to 50 nM; in the assay on PTPN2 [2] it was 50 to 200 nM.
Taken in the same sequence, the figures for `Cn1c(=O)n(C2CCC(=O)NC2=O)c2ccc(C3CCN(CC(=O)N4CCC[C@H](COc5ccc6cc(O)c(N7CC(=O)NS7(=O)=O)c(F)c6c5)C4)CC3)cc21` (stereo partly drawn) [Example 134, 3-[5-[1-[2-[(3S)-3-[[8-fluoro-6-hydroxy-7-(1,1,4-trioxo-1,2,5-thiadiazolidin-2-yl)-2-naphthyl]oxymethyl]-1-piperidyl]-2-oxo-ethyl]-4-piperidyl]-3-methyl-2-oxo-benzimidazol-1-yl]piperidine-2,6-dione] were 50 to 200 nM and 200 to 1000 nM.
The matching figures for `Cn1c(=O)n(C2CCC(=O)NC2=O)c2ccc(C3CCN(CCn4cc(-c5ccc6cc(O)c(N7CC(=O)NS7(=O)=O)c(F)c6c5)cn4)CC3)cc21` (stereo not drawn) [Example 135, 3-[5-[1-[2-[4-[8-fluoro-6-hydroxy-7-(1,1,4-trioxo-1,2,5-thiadiazolidin-2-yl)-2-naphthyl]pyrazol-1-yl]ethyl]-4-piperidyl]-3-methyl-2-oxo-benzimidazol-1-yl]piperidine-2,6-dione]: 50 to 200 nM and 50 to 200 nM.
The matching figures for `Cn1c(=O)n(C2CCC(=O)NC2=O)c2ccc(C3CCN(CCN4CCC[C@@H](COc5ccc6cc(O)c(N7CC(=O)NS7(=O)=O)c(F)c6c5)C4)CC3)cc21` (stereo partly drawn) [Example 137, 3-[5-[1-[2-[(3R)-3-[[8-fluoro-6-hydroxy-7-(1,1,4-trioxo-1,2,5-thiadiazolidin-2-yl)-2-naphthyl]oxymethyl]-1-piperidyl]ethyl]-4-piperidyl]-3-methyl-2-oxo-benzimidazol-1-yl]piperidine-2,6-dione]: 50 to 200 nM and 50 to 200 nM.
